Results taken from PubChem BioAssay AID550 (SRMLSC, 2006).
Calls of active or inactive are those of the source.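 The calls were made as follows: active = clearly stronger inhibition of the target decarboxylase than of the coupling enzymes tested in parallel without it; inactive = the rest.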

Target: diphosphomevalonate decarboxylase (Streptococcus pneumoniae D39)
Test: S. pneumoniae DPM-DC inhibitor potency, dose response, biochemical, PK/LDH-coupled NADH fluorescence, hexokinase coupling counter-screen (AID 550)
Details: purified DPM-DC

SMILES	outcome	IC50
Cn1c(=O)[nH]c(=O)c2c1nc(NC1CCCCC1)n2Cc1ccccc1	inactive	
CCOc1ncccc1C(=O)Nc1ccc2c(C)cc(=O)oc2c1	inactive	
CCOc1ccccc1OCC(=O)Nc1ccc(N2CCCCC2)cc1	inactive	
CCCC(=O)Nc1ccc(N2CCN(C(=O)CCC)CC2)cc1	inactive	
Cc1cc(N2CCOCC2)c2c(N)c(Br)cc(C)c2n1	inactive	
CN(C)S(=O)(=O)c1cccc(C(=O)C2=C3SC=C(c4ccccc4)N3CC2)c1	inactive	
O=C(CSc1ncnc2c1cnn2-c1ccccc1)Nc1ccc2c(c1)OCO2	inactive	
Cc1ccccc1Cc1c(C)nc2c(C(=O)N3CCN(Cc4ccc5c(c4)OCO5)CC3)cnn2c1C	inactive	
CCOC(=O)c1c(Nc2nc(C)c(C(=O)NC)s2)sc(C)c1C	inactive	
c1ccc(N2CCN(c3cnccn3)CC2)nc1	inactive	
Nc1nc(N)c2sc3nc4c(cc3c2n1)CCC4	inactive	
COc1ccc(N2CCN(CCNS(=O)(=O)c3cccc4nsnc34)CC2)cc1	inactive	
Cn1c(-c2ccc(N)cc2)nc2ccccc21	inactive	
O=P1(NC2CCCC2)COc2ccccc2OC1	inactive	
COC(=O)c1cc(OC)c(OC)cc1NC(=O)c1oc2ccccc2c1C	inactive	
CC(C)CC(=O)NCC(C)NC(=O)CC(C)C (stereo not given)	inactive	
COc1cc(NC(=O)c2ccco2)c(OC)cc1NC(=O)CCC(=O)Nc1cc(C)ccc1C	inactive	
COCCn1nnnc1CN(Cc1cccnc1)Cc1cc2cc(OC)ccc2[nH]c1=O	inactive	
Cc1ccc(OCCn2c(C)c(/C=N/n3cnnc3)c3ccccc32)cc1	inactive	
CCOC(=O)c1[nH]c2ccc(OC)cc2c1NC(=O)CN1CCN(c2ccccn2)CC1	inactive	
CSc1ncc(Cl)c(C(=O)Nc2nnc(SC)s2)n1	inactive	
c1ccc(-c2nc3nonc3c3nc4ccccc4n23)cc1	inactive	
C/C=C/Cn1c(N(C)Cc2ccccc2)nc2c1c(=O)[nH]c(=O)n2C	inactive	
COC(=O)c1cc2occc2n1CC(=O)Nc1ccc(OC)c(OC)c1OC	inactive	
CCc1cc(/C(Cc2ccc3ccccc3n2)=N\O)c(O)cc1O	inactive	
COCCOC(=O)c1c(C)oc2ccc(NS(=O)(=O)c3ccc(F)cc3)cc12	inactive	
Cc1c(C(=O)NC2CC2)oc2ccc(S(=O)(=O)N3CCCCCC3)cc12	inactive	
CCn1c(SCC(=O)Nc2cccc(C(C)=O)c2)nnc1C(C)C	inactive	

SMILES	outcome	IC50
CCOC(=O)c1c(C)n(OCc2ccccc2)c2ccc3c(no[n+]3[O-])c12	inactive	
CC1Cc2nc(SCC(=O)Nc3ccc4c(c3)OCO4)n(CCc3ccccc3)c(=O)c2S1 (stereo not given)	inactive	
CC(C)C(OC(=O)CN1C(=O)COc2ccccc21)C(=O)NC1CCCC1 (stereo not given)	inactive	
O=C(O)CCn1nnc(-c2cccs2)n1	inactive	
Cc1cc(=O)oc2cc(OC(C)C(=O)O)c(Cl)cc12 (stereo not given)	inactive	
N#C/C(=C\C1CC=CCC1)c1nc2ccccc2[nH]1 (stereo not given)	inactive	
CCCN(CC(=O)c1cc(C)n(C)c1C)S(=O)(=O)c1cccc(C(F)(F)F)c1	inactive	
CC1=C(C(=O)OCC2CCCO2)C(c2ccncc2)C2=C(CCCC2=O)N1 (stereo not given)		inactive
CC(=O)c1cccc(NC(=O)Nc2cccnc2)c1	inactive	
O=C1CCC(C(=O)N(Cc2ccco2)C2(C(=O)NC3CCCC3)CCCCC2)N1 (stereo not given)	inactive	
CCN(CC)CCCN(Cc1cc2cc3c(cc2[nH]c1=O)OCCO3)C(=O)Nc1ccccc1	inactive	
Cc1ccc2oc(=O)c3cnn(CC(=O)NC4CCN(Cc5ccccc5)CC4)c3c2c1	inactive	
CCC(=O)Nc1cccc(NC(=O)CSc2nnnn2Cc2ccccc2)c1	inactive	
Cc1ccc(S(=O)(=O)N2CCOCC(=O)NCCOCCNC(=O)COCC2)cc1	inactive	
Cc1ccc(S(=O)(=O)NCCN2CCOCC2)cc1C	inactive	
Cc1cc(O)c(C=Nc2cccc(Cl)c2)c(=O)o1	inactive	
CCc1ccc(NC(=O)c2cnc3scc(C)n3c2=O)cc1	inactive	
CCN(CCNC(=O)C1CCN(c2nnc(-n3cccc3)s2)CC1)c1ccccc1	inactive	
CCC(=O)Nc1nnc(Sc2ccc(N(C)C)cc2)s1	inactive	
COc1ccccc1CNc1ncnc2nc[nH]c12	inactive	
O/N=C1\CCC\C1=C/c1ccco1	inactive	
Cc1occc1C(=O)Nc1nnc(C(F)(F)F)s1	inactive	
Cc1cccc(C)c1NC(=O)C(c1ccccc1)N1CCN(C(=O)c2ccco2)CC1 (stereo not given)	inactive	
Cc1nc2nc(C)c(CCC(=O)N3CCOCC3)c(C)n2n1	inactive	
Cc1cc(N2CCN(C3CCCC3)CC2)n2nc(C)c(-c3ccccc3)c2n1	inactive	
Cc1ccsc1C1C(C(=O)O)c2ccccc2C(=O)N1C (stereo not given)	inactive	
COc1cccc2cc3c(=O)n(-c4ccccc4)nc-3oc12	inactive	
